Reference: US10813914B2, “Composition for controlling microsporidia in fishes and method for controlling microsporidia in fishes using same” (MARUHA NICHIRO CORPORATION, priority 2016, dated 2020)
Marks after values point to notes of the source that are not given here.

Columns and labels:
[1] = test system: microsporidian cyst (beko cyst), beko disease; experiment: Prevention test using albendazole (1) (1-3); format: in vivo, “Mojako” (yellowtail larva); conditions: 20 mg/kg Bw oral, 6 times/week
Description: 1-3. Prevention Test Using Albendazole (1)
(§1) A preliminary test was carried out according to the following procedure:
(§2) Test number: Live 1000 fishes (each initial body weight: 7 g)
(§3) Administration method: oral administration (feed together with spreading agent)
(§4) Drug used: albendazole (compound represented by the above-described formula (3))
(§5) Administration amount: 20 mg/kg Bw (20 mg per kg of fish body weight)
(§6) Administration interval: 6 times/week
A sampling test was carried out according to the following procedure:
Every two weeks from the start of administration, each 20 fishes of “Mojako” were taken out from each test group (100 fishes of “Mojako” at 8 weeks after the start of administration) and each fish was cut into three pieces. It was then visually tested whether the microsporidian cyst (beko cyst) was found in the pieces. When the beko cyst was observed, it was judged as positive and the test results were accumulated. Regarding the beko cyst that could be confirmed with the naked eye, the number was confirmed and the average infection number per one fish was determined.

[2] = Weight, deaths and food intake of Mojako in prevention test 1-3; format: in vivo, “Mojako” (yellowtail larva); design: Weight of Mojako: unit: g; conditions: 20 mg/kg Bw oral, 6 times/week
Description: as §1, §2, §5, §6

[3] = test system: microsporidian cyst (beko cyst), beko disease; experiment: Prevention test using albendazole (2), reduced dose (1-4); format: in vivo, “Mojako” (yellowtail larva); conditions: out of 100 fishes at 8 weeks after the start of administration
Description: Albendazole administration and a sampling test were carried out in the same procedure as in the above-described 1-3 except that the administration amount of albendazole was reduced to 5 or 10 mg/kg Bw. In the 10 mg/kg administration group, the number of (positive) individuals showing generation of the beko cyst was 0 out of 100 fishes of “Mojako” at 8 weeks after the start of administration. When the administration amount of albendazole was reduced to 5 mg/kg Bw, generation of the beko cyst was confirmed in 3 out of 100 fishes of “Mojako” at 8 weeks after the start of administration.

[4] = test system: microsporidian cyst (beko cyst), beko disease; experiment: Prevention test using albendazole (3), 16 weeks administration (1-5); format: in vivo, “Mojako” (yellowtail larva); design: Negative: unit not given here
Description: Administration of albendazole was continued for 16 weeks and a sampling test was performed at 2 weeks, 4 weeks, 6 weeks, 8 weeks, 12 weeks and 16 weeks after the start of administration in the same procedure as in the above-described 1-3. The sampling test was carried out in the same procedure also at 4 weeks after the termination of administration of albendazole (20 weeks after the start of administration).

[5] = test system: microsporidian cyst (beko cyst), beko disease; experiment: Prevention test using albendazole (4), two administration methods (1-6); format: in vivo, “Mojako” (yellowtail larva)
Description: A preliminary test was conducted using two administration methods including different administration amounts of albendazole per one operation and different administration intervals. The preliminary test was performed according to the following procedure:
as §2, §3, §4
Test group 1: 20 mg/kg Bw (20 mg per kg of fish body weight)
Test group 2: 40 mg/kg Bw (40 mg per kg of fish body weight)
Test group 1: 6 times/week (administered for 16 weeks)
Test group 2: 2 times/2 week (administered for 16 weeks)
A sampling test was carried out according to the same procedure as in the above-described 1-5.

[6] = test system: microsporidian cyst (beko cyst), beko disease; experiment: Prevention test using albendazole (5) in Kanpachi (1-7); format: in vivo, “Kanpachi” (great amberjack); conditions: 40 mg/kg Bw oral, 6 times/week
Description: A prevention test against the beko disease by administering albendazole was carried out using “Kanpachi” instead of “Mojako”.
A preliminary test was performed according to the following procedure:
Test number: Live 1000 fishes (each initial body weight: 50 g)
as §3, §4
Administration amount: 40 mg/kg Bw (40 mg per kg of fish body weight)
as §6
Sampling test procedure: same as in the above-described 1-1

[7] = test system: beko cyst, beko disease; experiment: Treatment test of Mojako infected with beko disease using albendazole (2-1); format: in vivo, “Mojako” (yellowtail larva); conditions: 50 mg/kg Bw oral, 6 times/week
Description: 2-1: Test by Treating “Mojako” Infected with Beko Disease Using Albendazole
A treatment test was carried out according to the following procedure.
Test number: Live 1000 fishes (test samples showing apparent infection with beko disease according to visual test at the time of vaccine inoculation were selected and tested)
as §3, §4
Administration amount: 50 mg/kg Bw (50 mg per kg of fish body weight)
as §6
Samples of “Mojako” showing irregularities on the body surface with certainty of beko infection in visual test at the time of vaccine inoculation were selected and divided randomly into the control group and the test group.

[8] = test system: microsporidia; conditions: culture test, Non-Patent Documents 3 to 7; cited from earlier work
[9] = 20 mg/kg Bw oral, 6 times/week, 2 Weeks
[10] = 20 mg/kg Bw oral, 6 times/week, 4 Weeks
[11] = 20 mg/kg Bw oral, 6 times/week, 6 Weeks
[12] = 20 mg/kg Bw oral, 6 times/week, 8 Weeks
[13] = 20 mg/kg Bw oral, 6 times/week, 12 Weeks
[14] = 20 mg/kg Bw oral, 6 times/week, 16 Weeks
[15] = 20 Weeks after start = 4 weeks after termination of 16-week administration

## CCCSc1ccc2nc(NC(=O)OC)[nH]c2c1 [Albendazole, albendazole]
[1]; 2 week
  Positive fishes (beko cyst) / fishes sampled: 0/20
[1]; 4 Weeks
  Positive fishes (beko cyst) / fishes sampled: 0/20
[1]; 6 weeks, p < 0.05
  Positive fishes (beko cyst) / fishes sampled: 0/20*
[1]; 8 weeks, p < 0.01
  Positive fishes (beko cyst) / fishes sampled: 0/100**
[1]; Total of 2-8 weeks, p < 0.01
  Positive fishes (beko cyst) / fishes sampled: 0/160**
[1]; Total of 2-8 weeks, p < 0.01, listed as albendazole
  Positive fishes (beko cyst) / fishes sampled: no positive was found
[2]; administration period
  Increase in the number of deaths and decline in food intake with respect to the control group: not recognized
[2]; 0 week
  Weight of Mojako: 7 ± 0.53
[2]; 2 Weeks
  Weight of Mojako: 18 ± 2.38
[2]; 4 Weeks
  Weight of Mojako: 29 ± 4.16
[2]; 6 Weeks
  Weight of Mojako: 51 ± 7.13
[2]; 8 Weeks
  Body weight compared with the control group: significant increase in body weight
  Influence on the growth of Mojako: does not exert a harmful influence on the growth
  Weight of Mojako: 73 ± 12.6
[3]; 5 mg/kg Bw oral
  Number of (positive) individuals showing generation of the beko cyst: 3
[3]; 10 mg/kg Bw oral
  Number of (positive) individuals showing generation of the beko cyst: 0
[4]; [9]
  Infection rate: 0%
  Negative: 20
  Positive: 0
[4]; [10]
  Infection rate: 0%
  Negative: 20
  Positive: 0
[4]; [11]
  Negative: 20
  Positive: 0
[4]; 20 mg/kg Bw oral, 6 times/week, 6 weeks, p < 0.05
  Infection rate: 0%*
[4]; [12]
  Negative: 100
  Positive: 0
[4]; 20 mg/kg Bw oral, 6 times/week, 8 weeks, p < 0.01
  Infection rate: 0%**
[4]; [13]
  Negative: 40
  Positive: 0
[4]; 20 mg/kg Bw oral, 6 times/week, 12 Weeks, p < 0.01
  Infection rate: 0%**
[4]; [14]
  Negative: 46
  Positive: 0
[4]; 20 mg/kg Bw oral, 6 times/week, 16 Weeks, p < 0.01
  Infection rate: 0%**
[4]; [15]
  Negative: 30
  Positive: 0
[4]; 20 Weeks after start = 4 weeks after termination of 16-week administration, p < 0.01
  Infection rate: 0%**
[4]; Total until 16 weeks
  Negative: 246
  Positive: 0
[4]; Total until 16 weeks, p < 0.01
  Infection rate: 0%**
[4]; after 16 weeks of 20 mg/kg Bw oral, 6 times/week
  Time the effect of preventing infection with microsporidia continues after administration was terminated: at least 4 weeks
[5]; Test group 1: 20 mg/kg Bw, 6 times/week for 16 weeks, 8 Weeks, p < 0.001
  Positive fishes (beko cyst) / fishes sampled: 0/50***
[5]; Test group 1: 20 mg/kg Bw, 6 times/week for 16 weeks, 16 Weeks, p < 0.0001
  Positive fishes (beko cyst) / fishes sampled: 0/70****
[5]; Test group 1: 20 mg/kg Bw, 6 times/week for 16 weeks, 24 Weeks (8 weeks after termination), 20 mg/kg
  Positive fishes (beko cyst) / fishes sampled: 16/50
[5]; Test group 1: 20 mg/kg Bw, 6 times/week for 16 weeks, 24 Weeks (8 weeks after termination), listed as albendazole, 20 mg/kg
  Positive fishes (beko cyst) / fishes sampled: did not continue until 8 weeks after termination of administration
[5]; Test group 1: 20 mg/kg Bw, 6 times/week for 16 weeks, at administration start time
  Positive fishes (beko cyst) / fishes sampled: 0/20
[5]; Test group 2: 40 mg/kg Bw, 2 times/2 week for 16 weeks, 8 Weeks, p < 0.001
  Positive fishes (beko cyst) / fishes sampled: 0/50***
[5]; Test group 2: 40 mg/kg Bw, 2 times/2 week for 16 weeks, 16 Weeks, p < 0.0001
  Positive fishes (beko cyst) / fishes sampled: 0/70****
[5]; Test group 2: 40 mg/kg Bw, 2 times/2 week for 16 weeks, 24 Weeks (8 weeks after termination), p < 0.0001, 40 mg/kg
  Positive fishes (beko cyst) / fishes sampled: 1/50****
[5]; Test group 2: 40 mg/kg Bw, 2 times/2 week for 16 weeks, 24 Weeks (8 weeks after termination), p < 0.0001, listed as albendazole, 40 mg/kg
  Positive fishes (beko cyst) / fishes sampled: significant suppression of generation of the beko cyst
[5]; Test group 2: 40 mg/kg Bw, 2 times/2 week for 16 weeks, at administration start time
  Positive fishes (beko cyst) / fishes sampled: 0/20
[6]; 8 Weeks, p < 0.01, 40 mg/kg
  Positive fishes (beko cyst) / fishes sampled: 1/50**
[6]; 8 Weeks, p < 0.01, listed as albendazole, 40 mg/kg
  Positive fishes (beko cyst) / fishes sampled: significantly suppressed generation of the beko cyst
[6]; at administration start time
  Positive fishes (beko cyst) / fishes sampled: 1/20
[7]; 10 Days
  Infection rate: 60%
[7]; 10 Days, 10 samples
  Number of positive fishes: 6
[7]; 21 Days, 63 samples
  Number of positive fishes: 28
[7]; 21 Days, p < 0.01, 50 mg/kg
  Infection rate: 44.4%**
[7]; 21 Days, p < 0.01, listed as albendazole, 50 mg/kg
  Infection rate: 44.4%
[7]; at administration start time
  Infection rate: 100%
[7]; at administration start time, 10 samples
  Number of positive fishes: 10
[8]
  Antimicrobial activity against microsporidia: high antimicrobial activity
